ChEMBL document CHEMBL6087462, “Cuminaldehyde Potentiates Antiproteolytic Peptide Efficacy via Parallel Pathways of Enhanced Inner Membrane-Damaging Activity and Inhibition of Bacterial Energy Metabolism” (J Med Chem, 2025)

What was measured:
Staphylococcus aureus [1] = test: Antimicrobial activity against Staphylococcus aureus ATCC 25923 assessed as reduction in microbial growth by CLSI based broth microdilution method; assay type: functional
Staphylococcus aureus [2] = test: Antimicrobial activity against Staphylococcus aureus ATCC 29213 assessed as reduction in microbial growth by CLSI based broth microdilution method; assay type: functional
Escherichia coli [3] = test: Antimicrobial activity against Escherichia coli 078 assessed as reduction in microbial growth by CLSI based broth microdilution method; assay type: functional
[4] = Antimicrobial activity against Salmonella enterica subsp. enterica serovar Pullorum ATCC 7913 assessed as reduction in microbial growth by CLSI based broth microdilution method; assay type: functional
Salmonella typhimurium [5] = test: Antimicrobial activity against Salmonella typhimurium ATCC 7731 assessed as reduction in microbial growth by CLSI based broth microdilution method; assay type: functional, Salmonella enterica subsp. enterica serovar Typhimurium; conditions: Salmonella enterica
Escherichia coli [6] = test: Antimicrobial activity against Escherichia coli ATCC 25922 assessed as reduction in microbial growth by CLSI based broth microdilution method; assay type: functional
Escherichia coli [7] = test: Antimicrobial activity against Escherichia coli K88 assessed as reduction in microbial growth by CLSI based broth microdilution method; assay type: functional
Enterococcus faecalis = test: Antimicrobial activity against Enterococcus faecalis ATCC 29212 assessed as reduction in microbial growth by CLSI based broth microdilution method; assay type: functional
[8] = test system: Staphylococcus epidermidis; test: Antimicrobial activity against Staphylococcus epidermidis ATCC 12228 assessed as reduction in microbial growth by CLSI based broth microdilution method; assay type: functional
Escherichia coli [9] = test: Antimicrobial activity against Escherichia coli UB 1005 assessed as reduction in microbial growth by CLSI based broth microdilution method; assay type: functional
Pseudomonas aeruginosa = test: Antimicrobial activity against Pseudomonas aeruginosa ATCC 27853 assessed as reduction in microbial growth by CLSI based broth microdilution method; assay type: functional
Escherichia coli [10] = test: Antimicrobial activity against Escherichia coli K99 assessed as reduction in microbial growth by CLSI based broth microdilution method; assay type: functional
Salmonella typhimurium [11] = test: Antimicrobial activity against Salmonella typhimurium ATCC 14028 assessed as reduction in microbial growth by CLSI based broth microdilution method; assay type: functional, Salmonella enterica subsp. enterica serovar Typhimurium; conditions: Salmonella enterica
Staphylococcus aureus [12] = test: Antimicrobial activity against Staphylococcus aureus 43300 assessed as reduction in microbial growth by CLSI based broth microdilution method; assay type: functional

Compound	MIC (Staphylococcus aureus [1]) [mg/mL]	MIC (Staphylococcus aureus [2]) [mg/mL]	MIC (Escherichia coli [3]) [mg/mL]	MIC [4] [mg/mL]	MIC (Salmonella typhimurium [5]) [mg/mL]	MIC (Escherichia coli [6]) [mg/mL]	MIC (Escherichia coli [7]) [mg/mL]	MIC (Enterococcus faecalis) [mg/mL]	MIC [8] [mg/mL]	MIC (Escherichia coli [9]) [mg/mL]	MIC (Pseudomonas aeruginosa) [mg/mL]	MIC (Escherichia coli [10]) [mg/mL]	MIC (Salmonella typhimurium [11]) [mg/mL]	MIC (Staphylococcus aureus [12]) [mg/mL]
CC(C)=CCCC(C)CC=O (stereo not drawn)	16.4	4.1	32.8	32.8	32.8	16.4	32.8	1.02	16.4	16.4	16.4	32.8	32.8	4.1
C=C(C)C1CC=C(C=O)CC1 (stereo not drawn) [PERILLALDEHYDE]	1.23	2.05	16.4	16.4	16.4	16.4	8.19	0.512	0.256	16.4	1.23	16.4	16.4	0.512
